Measurements: US11129835B2, “Methods and compositions for the inhibition of PIN1” (Beth Israel Deaconess Medical Center, Inc., priority 2012, dated 2021)
Square brackets hold non-standard residues; d marks the D form. Peptide text beside a SMILES is read from it. pT = C[C@@H](OP(=O)(O)O)[C@H](N)C(=O)O; 2Nal = N[C@@H](Cc1ccc2ccccc2c1)C(=O)O; Bta = N[C@@H](Cc1csc2ccccc12)C(=O)O; Pip = O=C(O)[C@@H]1CCCCN1

How the values were obtained:
full length Pin1 = target: T1, full length Pin1 (Homo sapiens, UniProt Q13526); assay: single-step fluorescence polarization-based displacement assay (FP-HTS), 384-well, HF488 probe; type: binding
T1 construct: FP-HTS in a 384-well plate format with full length Pin1
Procedure: A high-throughput screen for identifying Pin1 inhibitors was developed using a single-step fluorescence polarization-based displacement assay (FP-HTS).
The FP-HTS with a 5 nM probe and 200 nM Pin1 was used to conduct a pilot screen on a selected set of chemical libraries.
The anti-cancer effect of RAs was examined to determine whether it depends on RAR in the breast cancer cells.

Pin1 [1] = target: T2, Pin1 (Homo sapiens, UniProt Q13526); assay: Pin1 fluorescence polarization competition assay, primary qHTS (HiFluor-488 / Alexa488 probe);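 also: Pin1 protein with fluorescent peptide probe, compound displacement read by fluorescence polarization, percent inhibition derived from corrected polarization values, concentration-response curves in 1536-well format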
Procedure: (§1) The goal of this assay was to identify small-molecule inhibitors of Pin1 using a fluorescence polarization competition assay (FIG. 1). […] Candidate compounds were screened in a concentration-titration series (e.g., 57 μM to 0.7 nM).
(§2) Pin1 (0.6 μM) was dispensed into black, solid 1536-well plates (32 rows by 48 columns) at 2 μL/well in Pin1 buffer (10 mM HEPES (pH 7.5), 10 mM NaCl, 0.01% Tween20, 1 mM DTT, and 1% glycerol). Next, 23 nL of compound or DMSO was delivered to each well using a pin tool (tip wash sequence: DMSO, IPA, MeOH, 3 s vacuum dry). Two μL of Pin1-1b-HiFluor488 peptide in buffer (10 mM HEPES (pH 7.5), 10 mM NaCl, 0.01% Tween20, 1 mM DTT, and 1% glycerol, 0.02 μM Pin1-1b-HiFluor488) or DMSO was then dispensed to each well using a pin tool (tip wash sequence: DMSO, IPA, MeOH, 3 s vacuum dry), and plates were incubated at room temperature for 10 min (Table 2). Each plate included controls with no candidate inhibitory compound (32 wells), with unlabeled Pin1-1c titration (3.5 mM to 0.020 mM in a 1:2 dilution series including 2 replicates per concentration; 32 wells), and without Pin1 (64 wells).
(§3) The fluorescence polarization signal of each well was measured on a ViewLux® plate reader using a 480/20 nm excitation filter and 540/25 nm S and P emission filters with a 20 second exposure with 2× binning (Table 2). Percent inhibitory activity was determined from corrected fluorescence polarization values.
(§4) Concentration-response curves were fitted to the signals arising from the resulting fluorescence polarization. The concentration-effect curves were then classified based on curve quality (r^2), response magnitude, and degree of measured activity. Compounds were subsequently categorized based on their curve class.
Curves showing change polarized fluorescence may be categorized into 5 classes. Class 1 includes complete curves, having 2 asymptotes and an r^2 value of ≥0.9, with an efficacy of either >80% (class 1.1) or ≤80% (class 1.2). Class 1 curves may also be classified as noisy curves when efficacy is >80% and r^2<0.9 (class 1.3) or when efficacy is ≤80% and r^2<0.9 (class 1.4). Class 2 includes incomplete curves having 1 asymptote and an r^2 value of either >0.9 (subclass a) or <0.9 (subclass b), with an efficacy of either >80% (class 2.1) or ≤80% (class 2.2). Class 2 curves may also be classified as noisy curves when efficacy is >80% and r^2<0.9 (class 2.3) or when efficacy is ≤80% and r^2<0.9 (class 2.4). Class 3 includes single point activity curves having 1 asymptote and an efficacy >3 SD from the mean activity of the sample field at the highest tested concentration. […] A fifth class captures any curves not otherwise classified (FIG. 4).

Pin1 [2] = target: T2, Pin1; assay: Pin1 fluorescence polarization competition assay with Tamra-probe (secondary); settings: for Tamra Secondary Curve Class: Tamra-probe; for Emax: read-out: Tamra Secondary Efficacy
Procedure: An assay was developed for the identification of inhibitors of Pin1. […] Candidate compounds were screened in a concentration-titration series (e.g., 57 μM to 0.7 nM).
as §2, §3, §4
A further secondary assessment was accomplished by replacing the HiFluor-488-labeled probe with Tamra-probe, a red-shifted fluorophore.

Pin1 [3] = target: T2, Pin1; assay: confirmatory Pin1 fluorescence polarization competition assay (Alexa488 reconfirmed); settings: for Alexa488 Reconfirmed Curve Class: confirmatory retest; for Emax: read-out: Alexa488 Reconfirmed Efficacy;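 as to all read-outs here: Pin1 competition with a HiFluor488-labelled peptide probe, read as fluorescence polarization after 10 min at room temperature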
Procedure: as §1, §2, §3, §4

[4] = Alexa488 Primary Potency, primary qHTS
[5] = Average HTS Potency, average over Alexa488 primary, Alexa488 reconfirmed and Tamra secondary assays
[6] = read-out: Alexa488 Primary Efficacy

T2 sequence (Q13526 whole entry): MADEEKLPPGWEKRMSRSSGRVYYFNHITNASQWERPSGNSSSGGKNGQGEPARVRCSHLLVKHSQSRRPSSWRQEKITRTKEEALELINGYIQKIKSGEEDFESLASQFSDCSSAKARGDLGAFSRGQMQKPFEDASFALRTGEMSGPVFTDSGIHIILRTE
T1 sequence (Q13526 whole entry): as above

Compound | displacement of HF488 probe from Pin1 (full length Pin1) | Kd (full length Pin1; four residue core structure (pTide) of the HF488 fluorescent probes) | IC50 (Pin1 [1]; [4]) | IC50 (Pin1 [1]; [5]) | Alexa488 Primary Curve Class (Pin1 [1]; primary qHTS) | Emax (Pin1 [1]; [6]) | Emax (Pin1 [1]; read-out: Average HTS Efficacy) | IC50 (Pin1 [2]) | Tamra Secondary Curve Class (Pin1 [2]) | Emax (Pin1 [2]) | IC50 (Pin1 [3]) | Alexa488 Reconfirmed Curve Class (Pin1 [3]) | Emax (Pin1 [3])
C[C@@H](OP(=O)(O)O)[C@H](NC(=O)[C@@H](N)Cc1csc2ccccc12)C(=O)N1CCCC[C@H]1C(=O)N[C@@H](Cc1ccc2ccccc2c1)C(=O)O [pTide, Bth-L-phos.Thr-Pip-Nal] (H-[Bta][pT][Pip][2Nal]-OH; N-terminus and C-terminus assumed) | displaced HF488 probe from Pin1 | 0.258 µM |  |  |  |  |  |  |  |  |  |  | 
O=C(O)c1[nH]c2ccccc2c1C(c1cc(Cl)cc([N+](=O)[O-])c1O)c1c(C(=O)O)[nH]c2ccccc12 [Compound 44] |  |  | 36 µM | 24 µM | 2.2 (≤80% (class 2.2)) | 90% | 79% | 24 µM | 2.2 (≤80% (class 2.2)) | 83% | 12 µM | 2.2 (≤80% (class 2.2)) | 63%
COc1ccc(S(=O)(=O)N2CCN(C(=O)c3cc4c(s3)CCC4)CC2)cc1 [Compound 27] |  |  | 23 µM | 27 µM |  | 85% | 108% | 27 µM |  | 126% |  |  | 112%
COC(=O)COc1ccc(C2Nc3c(Cl)ccc(C(=O)O)c3C3C=CCC32)cc1 (stereo not drawn) [Compound 42] |  |  | 19 µM | 23 µM | 1.2 (≤80% (class 1.2)) | 73% | 76% | 24 µM | 2.2 (≤80% (class 2.2)) | 73% | 27 µM | 2.2 (≤80% (class 2.2)) | 82%
O=C(O)C1Nc2c(O)cc(Cl)c([N+](=O)[O-])c2C2C=CCC12 (stereo not drawn) [Compound 2] |  |  | 7 µM | 4 µM |  | 86% | 81% | 3 µM | 1.2 (≤80% (class 1.2)) | 69% | 2 µM |  | 89%
Cc1c(C(=O)c2no[n+]([O-])c2C(=O)c2cnn(C)c2C)cnn1C [Compound 30] |  |  | 3 µM | 1.16 µM | 1.2 (≤80% (class 1.2)) | 69% | 79% | 0.43 µM |  | 80% | 0.34 µM |  | 89%
C=CCOc1ccc(C(c2c(C(=O)O)[nH]c3ccccc23)c2c(C(=O)O)[nH]c3ccccc23)cc1 [Compound 46] |  |  | 43 µM | 30 µM | 2.2 (≤80% (class 2.2)) | 82% | 81% | 21 µM | 2.2 (≤80% (class 2.2)) | 78% | 27 µM | 2.2 (≤80% (class 2.2)) | 84%
CCCCOc1ccc(C(=O)N/C(=C/c2cccc([N+](=O)[O-])c2)C(=O)O)cc1 [Compound 36] |  |  | 11 µM | 15 µM |  | 101% | 80% | 19 µM | 2.2 (≤80% (class 2.2)) | 76% | 14 µM | 2.2 (≤80% (class 2.2)) | 62%
COc1ccc(C(=O)c2no[n+]([O-])c2C(=O)c2ccc(OC)cc2)cc1 [Compound 32] |  |  | 38 µM | 13 µM | 1.2 (≤80% (class 1.2)) | 21% | 61% | 0.19 µM |  | 81% | 0.24 µM |  | 82%
CCCCCCCCCCCCN1[C@@H](C(=O)O)c2cc(C(F)(F)F)ccc2S1(=O)=O [Compound 34] |  |  | 20 µM | 27 µM |  | 65% | 91% | 38 µM | 3.0 | 103% | 24 µM |  | 104%
O=C(O)C1Nc2c(Cl)cc(Cl)c(Cl)c2C2C=CCC12 (stereo not drawn) [Compound 5] |  |  | 18 µM | 7 µM | 1.2 (≤80% (class 1.2)) | 53% | 63% | 2 µM | 1.2 (≤80% (class 1.2)) | 61% | 2 µM | 1.2 (≤80% (class 1.2)) | 75%
Cc1ccc(N(Cc2cc(=O)[nH]c3ccccc23)C(=O)CCl)cc1 [Compound 9] |  |  | 10 µM | 4 µM |  | 78% | 95% | 1.2 µM |  | 97% | 2 µM |  | 111%
Cc1cc(C(=O)NCc2ccc(C(=O)O)o2)c(C)o1 [Compound 33] |  |  | 48 µM | 21 µM | 1.2 (≤80% (class 1.2)) | 20% | 58% | 10 µM | 2.2 (≤80% (class 2.2)) | 70% | 7 µM | 2.2 (≤80% (class 2.2)) | 84%
Cc1oc(-c2ccc3c(c2)OCCO3)cc1C(=O)NC(Cc1ccccc1)C(=O)O (stereo not drawn) [Compound 21] |  |  | 15 µM | 11 µM | 1.2 (≤80% (class 1.2)) | 58% | 62% | 8 µM | 2.2 (≤80% (class 2.2)) | 72% | 11 µM | 2.2 (≤80% (class 2.2)) | 56%
O=C(O)c1cc(Cl)c2c(c1)[C@@H]1C=CC[C@@H]1[C@H](c1ccc(S(=O)(=O)N3CCOCC3)cc1)N2 [Compound 41] |  |  | 30 µM | 23 µM | 2.2 (≤80% (class 2.2)) | 88% | 77% | 19 µM | 2.2 (≤80% (class 2.2)) | 80% | 19 µM | 2.2 (≤80% (class 2.2)) | 62%
COc1cc(C(c2c(C(=O)O)[nH]c3ccccc23)c2c(C(=O)O)[nH]c3ccccc23)ccc1OCc1ccccc1 [Compound 47] |  |  | 79 µM | 40 µM | 1.2 (≤80% (class 1.2)) | 26% | 67% | 21 µM |  | 91% | 19 µM | 2.2 (≤80% (class 2.2)) | 84%
O=C(c1ccc(=O)oc1)N1CCOCC1 [Compound 20] |  |  | 14 µM | 7 µM |  | 73% | 73% | 6 µM | 1.2 (≤80% (class 1.2)) | 70% | 2 µM | 1.2 (≤80% (class 1.2)) | 77%
N#Cc1no[n+]([O-])c1C(=O)c1cccs1 [Compound 31] |  |  | 4 µM | 2 µM |  | 74% | 80% | 2 µM |  | 82% | 2 µM |  | 85%
Cc1ccc(C(=O)c2no[n+]([O-])c2C(=O)c2ccc(C)cc2)cc1 [Compound 29] |  |  | 3 µM | 0.9 µM |  | 83% | 85% | 0.1 µM |  | 82% | 0.1 µM |  | 90%
Cc1ccc(C)c2c1NC(C(=O)O)C1CC=CC21 (stereo not drawn) [Compound 7] |  |  | 45 µM | 29 µM | 1.2 (≤80% (class 1.2)) | 63% | 72% | 14 µM | 2.2 (≤80% (class 2.2)) | 63% |  | 2.2 (≤80% (class 2.2)) | 91%
COc1ccc(NS(=O)(=O)c2ccc3c(c2)[C@H]2C=CC[C@H]2[C@@H](c2ccc(C(=O)O)cc2)N3)cc1 [Compound 40] |  |  | 25 µM | 20 µM |  | 55% | 83% | 24 µM | 2.2 (≤80% (class 2.2)) | 96% | 10 µM |  | 99%
